Source: ChEMBL document CHEMBL1145526, “Synthesis of 11C-labelled (R)-OHDMI and CFMME and their evaluation as candidate radioligands for imaging central norepinephrine transporters with PET” (Bioorg Med Chem, 2007)
Each block holds one molecule with its values, some of them ahead of it.

How the values were obtained:
[1] = biological target: Sodium-dependent noradrenaline transporter (Homo sapiens, UniProt P23975)
Brain [2] = assay: Drug uptake in cynomolgus monkey brain assessed as radio activity at 1.35 mCi after 24 mins; type: ADME, tissue-based, Macaca fascicularis; details: in vivo, 0.4 h
Cynomolgus monkey [3] = assay: Ratio of drug level in cerebellum to thalamus in cynomolgus monkey at 1.35 mCi after 93 mins; type: ADME, organism-based, Macaca fascicularis; details: in vivo, 1.55 h
Cynomolgus monkey [4] = assay: Ratio of drug level in cerebellum to occipital cortex in cynomolgus monkey at 1.35 mCi after 93 mins; type: ADME, organism-based, Macaca fascicularis; details: in vivo, 1.55 h
Cynomolgus monkey [5] = assay: Ratio of drug level in cerebellum to locus coreuleus in cynomolgus monkey at 1.35 mCi after 93 mins; type: ADME, organism-based, Macaca fascicularis; details: in vivo, 1.55 h
Cynomolgus monkey [6] = assay: Ratio of drug level in cerebellum to mesencephalon in cynomolgus monkey at 1.35 mCi after 93 mins; type: ADME, organism-based, Macaca fascicularis; details: in vivo, 1.55 h
Cynomolgus monkey [7] = assay: Ratio of drug level in cerebellum to striatum in cynomolgus monkey at 1.35 mCi after 93 mins; type: ADME, organism-based, Macaca fascicularis; details: in vivo, 1.55 h
Brain [8] = assay: Drug uptake in cynomolgus monkey brain assessed as radio activity at 1.35 mCi after 42 mins; type: ADME, tissue-based, Macaca fascicularis; details: in vivo, 0.7 h
Brain [9] = assay: Drug uptake in cynomolgus monkey brain assessed as radio activity at 1.41 mCi after 80 mins; type: ADME, tissue-based, Macaca fascicularis; details: in vivo
Cynomolgus monkey [10] = assay: Ratio of drug level in striatum to occipital cortex in cynomolgus monkey at 1.41 mCi after 93 mins; type: ADME, organism-based, Macaca fascicularis; details: in vivo, 1.55 h
Cynomolgus monkey [11] = assay: Ratio of drug level in striatum to thalamus in cynomolgus monkey at 1.41 mCi after 93 mins; type: ADME, organism-based, Macaca fascicularis; details: in vivo, 1.55 h
Cynomolgus monkey [12] = assay: Ratio of drug level in striatum to lower brainstem in cynomolgus monkey at 1.41 mCi after 93 mins; type: ADME, organism-based, Macaca fascicularis; details: in vivo, 1.55 h
Cynomolgus monkey [13] = assay: Ratio of drug level in striatum to mesencephalon in cynomolgus monkey at 1.41 mCi after 93 mins; type: ADME, organism-based, Macaca fascicularis; details: in vivo, 1.55 h
Cynomolgus monkey [14] = assay: Ratio of drug level in striatum to cerebellum in cynomolgus monkey at 1.41 mCi after 93 mins; type: ADME, organism-based, Macaca fascicularis; details: in vivo, 1.55 h
Cynomolgus monkey [15] = assay: Ratio of drug level in NET-rich thalamus to NET-poor striatum in cynomolgus monkey; type: ADME, organism-based, Macaca fascicularis; details: in vivo
Cynomolgus monkey [16] = assay: Ratio of drug level in thalamus to striatum in cynomolgus monkey; type: ADME, organism-based, Macaca fascicularis; details: in vivo

Sequence of Sodium-dependent noradrenaline transporter (P23975 whole entry): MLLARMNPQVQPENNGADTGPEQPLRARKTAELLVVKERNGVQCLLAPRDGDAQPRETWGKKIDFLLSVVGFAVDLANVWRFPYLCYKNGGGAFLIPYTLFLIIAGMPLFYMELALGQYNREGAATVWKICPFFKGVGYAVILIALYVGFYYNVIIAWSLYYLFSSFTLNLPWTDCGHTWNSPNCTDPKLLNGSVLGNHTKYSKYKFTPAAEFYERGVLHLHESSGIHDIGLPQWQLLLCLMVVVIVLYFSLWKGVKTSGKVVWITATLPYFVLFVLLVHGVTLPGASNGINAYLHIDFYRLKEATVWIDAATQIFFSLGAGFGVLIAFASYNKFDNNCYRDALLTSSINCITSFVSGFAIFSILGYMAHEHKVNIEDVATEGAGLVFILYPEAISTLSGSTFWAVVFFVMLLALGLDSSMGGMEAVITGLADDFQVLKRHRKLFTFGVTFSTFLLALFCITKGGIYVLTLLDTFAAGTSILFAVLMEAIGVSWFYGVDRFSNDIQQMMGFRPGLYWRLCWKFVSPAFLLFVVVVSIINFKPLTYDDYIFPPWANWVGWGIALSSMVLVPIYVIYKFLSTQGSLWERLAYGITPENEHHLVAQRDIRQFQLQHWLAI

Ki [1]: 8.29 nM
SMILES: CNC[C@@H](O)CN1c2ccccc2CCc2ccccc21

Drug uptake (Brain [2]): 3.5 %ID
Ratio (Cynomolgus monkey [3]): 1.35
Ratio (Cynomolgus monkey [4]): 1.3
Ratio (Cynomolgus monkey [5]): 1.3
Ratio (Cynomolgus monkey [6]): 1.2
Ratio (Cynomolgus monkey [7]): 1.2
Ratio (Brain [8]): 3.5 %ID
SMILES: [11CH3]Oc1ccc(F)cc1C[C@](O)(C1CCCC1)[C@@H]1CNCCO1

Ki [1]: 7.93 nM
SMILES: COc1ccccc1O[C@@H](c1ccccc1)[C@@H]1CNCCO1

Drug uptake (Brain [9]): 1.1 %ID
Ratio (Cynomolgus monkey [10]): 1.35
Ratio (Cynomolgus monkey [11]): 1.35
Ratio (Cynomolgus monkey [12]): 1.2
Ratio (Cynomolgus monkey [13]): 1.2
Ratio (Cynomolgus monkey [14]): 1
Ratio (Cynomolgus monkey [15]): 1.35
SMILES: [11CH3]NC[C@@H](O)CN1c2ccccc2CCc2ccccc21

Ratio (Cynomolgus monkey [16]): 1.5
SMILES: [11CH3]NC[C@@H](O)CC12CCC(c3ccccc31)c1ccccc12

Ki [1]: 10.8 nM
SMILES: COc1ccc(F)cc1C[C@](O)(C1CCCC1)[C@@H]1CNCCO1
